Source: patent US20140154263A1, “Use of TAK1 Inhibitor to Achieve Glycemic Control in Mammals” (Connexios Life Sciences Pvt. Ltd., priority 2012, published 2014)

Columns and labels:
[1] = test system: skeletal muscles; experiment: ROS levels in skeletal muscle cells; format: cell-based; conditions: different disease conditions, FIG. 17 C
From the text: (§1) Oxidative stress mediated by both ROS and RNS (NO) is known to impair mitochondrial function and induced insulin resistance in skeletal muscle (FIG. 17). Furthermore, it is also known that metabolic overload and inflammatory signal drives oxidative stress in skeletal muscles.

[2] = test system: insulin gene, PDX1, IL1b, glucokinase (GCK) and Glut2 (slc2a2); experiment: Gene expression in islet beta cells under inflammatory conditions; format: cell-based, rat
[3] = test system: skeletal muscle cells; experiment: Mitochondrial biogenesis in skeletal muscle cells (mtND1, mitochondrial DNA copy number, MEF2C); format: cell-based; conditions: FIG. 18
[4] = test system: 3T3 L1 cells; experiment: Insulin sensitivity in adipocytes (Western blot p-Akt Thr-308 / total Akt); format: cell-based; conditions: glucose and palmitate 48 hours, then 10 and 100 nM insulin 15 min, FIG. 2
Method: This was ascertained by treating 3T3 L1 cells with glucose and palmitate (GP) for 48 hours in the presence and absence of TAK-1 inhibitor. Cells were then stimulated with 10 and 100 nM insulin (I) for 15 min, following which they were taken up for Western blot analysis for p-Akt ([…]) and total Akt.

[5] = test system: JNK; experiment: JNK phosphorylation under inflammatory conditions in adipocytes; format: cell-based; conditions: in response to inflammatory cytokine, FIG. 1
[6] = test system: rat primary hepatocytes; experiment: Reactive oxygen species in rat primary hepatocytes; format: cell-based; conditions: glucose, palmitate and inflammatory cytokines, FIG. 8
From the text: Reactive oxygen species (ROS) are generated as metabolic byproducts, particularly as a byproduct of oxidative phosphorylation. Under normal conditions, the levels of ROS generated are low and tightly controlled, and can function as signaling intermediates.

[7] = test system: rat islets; experiment: Glucose stimulated insulin secretion (GSIS) under inflammatory conditions; format: cell-based; conditions: inflammatory condition (Infl), FIG. 25
[8] = test system: 3T3F442A pre adipocytes; experiment: Adipogenesis (TG levels) under inflammatory cytokines; format: cell-based; conditions: differentiation with inflammatory cytokines, FIG. 3
Method: Experiments were performed in which inflammatory cytokines were added to 3T3F442A pre adipocytes (UD) and TG levels were estimated as a measure of adipogenesis. Differentiation was carried out in the presence and absence of TAK-1 inhibitor.

[9] = test system: IkB; experiment: IkB level in skeletal muscle cells; format: cell-based; conditions: skeletal muscle cells under inflammatory conditions (Infl), FIG. 14
From the text: (§2) Taken together, TAK-1 inhibition could lead to decreased JNK and NFkB signaling under metabolic overload and inflammation.

[10] = test system: muscle cells; experiment: Mitochondrial activity of muscle cells (reduction of MTT); format: cell-based; conditions: inflammation and oxidative stress conditions, FIG. 18
[11] = test system: JNK; experiment: JNK activation in skeletal muscle cells; format: cell-based
From the text: as §2

[12] = test system: 3T3F442A cells; experiment: Secreted adiponectin in adipocytes; format: cell-based; conditions: inflammation (inf) plus metabolic overload (pal), FIG. 4
From the text: Adiponectin is secreted by insulin sensitive mature adipocytes and positively modulates glucose and lipid metabolism in non adipose tissues such as liver, muscle etc. Increased adiponectin secretion is desirable and is correlated with whole body insulin sensitivity. Inflammation (inf) in the presence of metabolic overload (pal) caused a decrease in adiponectin secretion in 3T3F442A cells.

[13] = test system: C2C12 myotubes; experiment: NO release from muscle cells; format: cell-based
From the text: as §1

[14] = metabolic overload or inflammation

Compound: COc1cc(O)c2c(c1)/C=C/C[C@H](O)[C@H](O)C(=O)/C=C\C[C@H](C)OC2=O [(5Z)-7-Oxozeaenol]
- ROS levels [1]: reduced
- inflammation induced IL1b expression ([2]; rat islet, FIG. 27): reduce inflammation induced IL1b expression
- insulin gene and PDX1 expression ([2]; rat islets, under inflammation, FIG. 26): up-regulate
- mitochondrial DNA copy number [3, 14]: increased mitochondrial DNA copy number
- muscle enriched transcription factor (MEF2C) [3, 14]: increased
- expression of mitochondrial genes such as mtND1 ([3]; skeletal muscle cells): up-regulate
- insulin sensitivity (p-Akt Thr-308 / total Akt) [4]: restored insulin sensitivity
- activation of JNK [5]: decreased activation of JNK
- intracellular ROS levels [6]: reduced ROS levels
- glucose stimulated insulin secretion (GSIS) [7]: restored GSIS
- TG levels as a measure of adipogenesis [8]: partially restored
- IkB level (NFkB pathway) [9]: increasing IkB level
- mitochondrial activity (reduction of MTT) [10]: increase mitochondrial activity
- activation of JNK ([11]; in response to inflammatory cytokines, FIG. 13): decreased activation of JNK
- activation of JNK ([11]; in response to metabolic stress (palmitate overload)): reduce activation of JNK
- decrease in adiponectin secretion [12]: partially inhibited
- inflammation induced NO release ([13]; C2C12 myotubes, FIG. 17 A): reduced inflammation induced NO release from C2C12 myotubes in a dose dependent manner
- NO release ([13]; skeletal muscles, metabolic overload (high glucose and palmitate) and inflammatory conditions, FIG. 17 B): reduced NO release
